Source: patent publication US20230052528A1 (priority 2019, published 2023)
Read-outs that look alike come from different tables or passages of the source.

Legend:
PC9 lung cancer cells = assay: Cell viability (CellTiter-Glo), PC9; format: cell-based
H522 lung cancer cells = assay: Cell viability, H522; format: cell-based; details: Homo sapiens
[1] = system: PC9, H1975, H522, HSAEC 1-KT, MDA-MB-231 and PC3 cell lines; assay: Cell viability, statements over all cell lines studied; format: cell-based; details: for EC50: read-out: EC50
H1975 lung cancer cells = assay: Cell viability, H1975; format: cell-based; details: Homo sapiens
HSAEC 1-KT cells = assay: Cell viability, HSAEC 1-KT; format: cell-based; details: read-out: IC50 (μM) HSAEC 1-KT (Lung)
[2] = system: MDA-MB-231 triple-negative breast cancer cells; assay: Cell viability, MDA-MB-231; format: cell-based; details: Homo sapiens
PC3 prostate cells = assay: Cell viability, PC3; format: cell-based; details: read-out: IC50 (μM) PC3 (Prostate)
[3] = molecular target: T1, wildtype Taspase1 (split Tasp1 WT) (Homo sapiens, UniProt Q9H6P5); assay: biochemical
T1 sequence (Q9H6P5 1-233): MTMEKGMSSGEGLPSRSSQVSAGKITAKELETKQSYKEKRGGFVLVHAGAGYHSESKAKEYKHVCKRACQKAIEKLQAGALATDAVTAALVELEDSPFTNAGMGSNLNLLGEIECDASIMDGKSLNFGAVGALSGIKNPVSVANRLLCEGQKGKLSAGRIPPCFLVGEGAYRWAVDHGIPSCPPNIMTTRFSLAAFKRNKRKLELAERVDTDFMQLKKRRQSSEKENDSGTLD
T1 sequence (Q9H6P5 234-420): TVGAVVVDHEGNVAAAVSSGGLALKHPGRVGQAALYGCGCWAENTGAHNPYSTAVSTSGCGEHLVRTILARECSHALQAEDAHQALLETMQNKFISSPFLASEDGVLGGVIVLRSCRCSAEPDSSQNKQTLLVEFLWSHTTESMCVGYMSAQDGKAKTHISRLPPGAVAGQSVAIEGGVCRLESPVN
Method: (§1) FIGS. 4A-4B. […] “Taspase1 IC50 (FAM)”=inhibition of cleavage of a Taspase1 peptide substrate; detected by fluorescence resonance energy transfer (FRET). “6.6 mM GSH added”=same assay, in the presence of 6.6 mM glutathione (GSH). […] “Ki”=Ki determined by kinact/Ki measurements, using the Taspase1/FRET-peptide assay described above.
To extend that assay, compounds are also tested in the presence of 6.6 mM GSH as a non-specific, but physiologically relevant, thiol competitor.

Taspase1 = molecular target: T2, Taspase1 (Homo sapiens, UniProt Q9H6P5); assay: biochemical
T2 sequence (Q9H6P5 1-233): T1 sequence (Q9H6P5 1-233)
T2 sequence (Q9H6P5 234-420): T1 sequence (Q9H6P5 234-420)
Method: as §1
Ki is the binding constant that describes the energy of association for the non-covalent portion of the molecule. Kinact is the rate at which the covalent bond is formed between the small molecule and the protein.

split Tasp1 WT = molecular target: T3, split Tasp1 WT (Homo sapiens, UniProt Q9H6P5); assay: LC-MS tethering dose-response (DR50) assay; format: binding; details: relative to the other shouldered piperazine analogs
T3 construct: residues 1-233 (alpha domain) in Multiple Cloning Site-1 (MCS-1); residues 234-420 (beta domain) in MCS-2; His6 (TEV-cleavable) (N, cleaved yes); made in house; host or cells: E. coli Rosetta2(DE3)
T3 sequence (Q9H6P5 1-233): T1 sequence (Q9H6P5 1-233)
T3 sequence (Q9H6P5 234-420): T1 sequence (Q9H6P5 234-420)

[4] = Stability of shouldered triazole compound (method not described)
[5] = NCI-H1975, read-out: H1975 [Lung] (uM), Table 2
[6] = NCI-H1975, read-out: IC50 (μM) H1975 (Lung), Table 2a cytotoxicity
[7] = MDA-MB-231, Table 2, read-out: MDA-MB-231 [Breast]
[8] = read-out: kinact (s^−1), Table 1
[9] = read-out: kinact (s^−1), Table 1a
[10] = Biochemical IC50 (nM) +6.6 mM GSH, Table 1, +6.6 mM GSH, 3FAM/QXL520 fluorescent dyes
[11] = Biochemical IC50 (nM) no GSH, Table 1, no GSH, 3FAM/QXL520 fluorescent dyes
[12] = WT IC50 (nM) 6.6 mM GSH, Table 1a, 6.6 mM GSH, average ± std dev
[13] = WT IC50 (nM) No GSH, Table 1a, no GSH, average ± std dev
[14] = Table 2a cytotoxicity, read-out: IC50 (μM) PC9 (Lung)
[15] = MDA-MB-231, Table 2a cytotoxicity, read-out: IC50 (μM) MDA-MB-231 (Breast)
[16] = NCI-H522, Table 2a cytotoxicity, read-out: IC50 (μM) H522 (Lung)

Row | SMILES | IC50 (H1975 lung cancer cells; [6]) [µM] | IC50 ([3]; IC50 vs split Tasp1 WT) [nM] | Ki (Taspase1; Ki (uM), Table 1) [µM] | Ki (Taspase1; Ki (μM), Table 1a) [µM] | kinact (Taspase1; [8]) [s⁻¹] | kinact (Taspase1; [9]) [s⁻¹] | IC50 [3, 10] [nM] | IC50 [3, 11] [nM] | IC50 [3, 12] [nM] | IC50 [3, 13] [nM] | IC50 (PC9 lung cancer cells; [14]) [µM] | IC50 [2, 15] [µM] | further results
1 | C=CS(=O)(=O)N1CCN(Cc2cccc(OC(F)(F)F)c2)CC1 [SMDC723, 1-(3-(Trifluoromethoxy)benzyl)-4-(vinylsulfonyl)piperazine] | 27.8 ± 5.6 | 40000 | – | – | – | – | – | – | – | – | – | – | IC50 (PC9 lung cancer cells; Table 2, read-out: PC9 [Lung]): ~22 µM; IC50 (PC9 lung cancer cells; read-out: IC50 (μM) PC9 (Lung), Table 2a cytotoxicity): 25.8 ± 2.7 µM; IC50 (H522 lung cancer cells; NCI-H522, read-out: IC50 (μM) H522 (Lung)): 24.4 ± 1.7 µM; IC50 ([1]; all cell lines studied, read-out: IC50 against cell lines studied): > 20 µM; IC50 (H1975 lung cancer cells; [5]): ~20 µM; IC50 (HSAEC 1-KT cells): ~32 µM; IC50 [2, 7]: ~37 µM; IC50 ([2]; MDA-MB-231, read-out: IC50 (μM) MDA-MB-231 (Breast), Table 2a cytotoxicity): 37 µM; IC50 (PC3 prostate cells): ~28 µM
2 | C=CS(=O)(=O)NCCCc1ccc(OC(F)(F)F)cc1 [SMDC714] | – | 16000 | – | – | – | – | – | – | – | – | – | – | –
3 | CN(C)CCSSCCCC(=O)NCc1ccc(OC(F)(F)F)cc1 [SMDC208, 4-{[2-(dimethylamino)ethyl]disulfanyl}-N-{[4-(trifluoromethoxy)phenyl]methyl}butanamide] | – | 30300 | – | – | – | – | – | – | – | – | – | – | –
4 | C#CCOC[C@H]1CN(S(=O)(=O)C=C)CCN1Cc1ccc(OC(F)(F)F)c(F)c1 [SMDC883, (2R)-4-(ethenesulfonyl)-1-{[3-fluoro-4-(trifluoromethoxy)phenyl]methyl}-2-[(prop-2-yn-1-yloxy)methyl]piperazine] | – | ~20 | 64.3 | 87 | 0.037 | 0.045 | 340 | 26 | 340 ± 30 | 26 ± 8 | – | – | –
5 | C=CS(=O)(=O)N1CCN(Cc2ccc(OC(F)(F)F)cc2)CC1 [SMDC967, 1-(ethenesulfonyl)-4-{[4-(trifluoromethoxy)phenyl]methyl}piperazine] | – | 114 | 6.02 | 30 | 0.011 | 0.004 | – | 168 | – | 168 ± 54 | – | – | –
6 | C=CS(=O)(=O)N1CCN(Cc2ccc(OC(F)(F)F)c(F)c2)[C@@H](CN2CCS(=O)(=O)CC2)C1 [SMDC275, 4-{[(2S)-4-(ethenesulfonyl)-1-{[3-fluoro-4-(trifluoromethoxy)phenyl]methyl}piperazin-2-yl]methyl}-1λ^6-thiomorpholine-1,1-dione] | 2.6 | ~20 | – | – | – | – | 420 | 27 | 420 ± 80 | 38 ± 16 | 3.5 | 4.3 | IC50 (PC9 lung cancer cells; Table 2, read-out: PC9 [Lung]): 3.5 µM; IC50 (H1975 lung cancer cells; [5]): 2.6 µM; IC50 [2, 7]: 4.3 µM; binding affinity in the tethering assay (split Tasp1 WT): enhanced binding affinity
7 | C=CS(=O)(=O)N1CCN(Cc2ccc(OC(F)(F)F)c(F)c2)[C@@H](CCO)C1 [SMDC069, 2-[(2S)-4-(ethenesulfonyl)-1-{[3-fluoro-4-(trifluoromethoxy)phenyl]methyl}piperazin-2-yl]ethan-1-ol] | 3.6 ± 2.2 | ~20 | 23.2 | 33 | 0.082 | 0.112 | 273 | 17 | 273 ± 68 | 25 ± 16 | 3.9 ± 2.6 | 6 ± 4.1 | IC50 (PC9 lung cancer cells; 72 h, FIG. 3B, read-out: IC50, reduced viability of EGFR mutant PC9 lung cancer cells): ~2 µM; IC50 (H522 lung cancer cells; [16]): 2 µM; EC50 [1]: 2 to 6 µM; IC50 (HSAEC 1-KT cells; Table 2a cytotoxicity): 3.2 µM; IC50 (PC3 prostate cells; Table 2a cytotoxicity): 3.4 µM
8 | C=CS(=O)(=O)N1CCN(Cc2ccc(OC(F)(F)F)c(F)c2)CC1 [SMDC689, 1-(Ethenesulfonyl)-4-{[3-fluoro-4-(trifluoromethoxy)phenyl]methyl}piperazine] | 17.6 ± 8.3 | 51 | 32.9 | 45.8 ± 13.4 | 0.028 | 0.031 ± 0.003 | 661 | 51 | 661 ± 152 | 51 ± 47 | 11 ± 1 | 16.5 ± 1.5 | IC50 (H522 lung cancer cells; [16]): 20 ± 10 µM; IC50 (HSAEC 1-KT cells; Table 2a cytotoxicity): 13 µM; IC50 (PC3 prostate cells; Table 2a cytotoxicity): 15 µM
9 | C=CS(=O)(=O)N1CCN(Cc2ccc(OC(F)(F)F)c(F)c2)[C@@H](COCc2c[nH]nn2)C1 [SMDC556, (R)-2-(((1H-1,2,3-triazol-4-yl)methoxy)methyl)-1-(3-fluoro-4-(trifluoromethoxy)benzyl)-4-(vinylsulfonyl)piperazine] | – | – | – | – | – | – | – | – | – | – | – | – | stability [4]: too unstable
10 | CN(C)CCSSCCCNC(=O)Cc1ccc(OC(F)(F)F)cc1 [SMDC673, N-(3-{[2-(Dimethylamino)ethyl]disulfanyl}propyl)-2-[4-(trifluoromethoxy)phenyl]acetamide] | – | 11300 | – | – | – | – | – | – | – | – | – | – | –
11 | C=CS(=O)(=O)N1CCN(Cc2ccc(OC(F)(F)F)c(F)c2)[C@@H](COCc2cn[nH]c2)C1 [SMDC203, (R)-2-(((1H-pyrazol-4-yl)methoxy)methyl)-1-(3-fluoro-4-(trifluoromethoxy)benzyl)-4-(vinylsulfonyl)piperazine] | 9.6 ± 1.5 | ~20 | 27.7 | 45 | 0.048 | 0.061 | 237 | 22 | 237 ± 40 | 32 ± 18 | 10.3 ± 0.3 | 15.5 ± 2.5 | IC50 (PC9 lung cancer cells; Table 2, read-out: PC9 [Lung]): 10.5 µM; EC50 [1]: 9.6 to 15.5 µM; IC50 (H1975 lung cancer cells; [5]): 8.1 µM; IC50 [2, 7]: ~13 µM; IC50 (PC3 prostate cells; Table 2a cytotoxicity): 15 µM
